{"source": "patent US9944583B2", "about": "“Methods for ameliorating and preventing central nervous system inflammation” (THE REGENTS OF THE UNIVERSITY OF CALIFORNIA, priority 2007, dated 2018)", "key": {"[1]": {"tested_on": "primary neuronal cultures", "experiment": "IL-6 exposure of primary neuronal cultures: oxidized DHE, Nox2, parvalbumin and GAD67", "type": "cell-based, mouse", "description": "IL-6 increases superoxide in a Nox dependent manner, and reduces GAD67 and parvalbumin in primary cultures, as summarized by the data graphically presented in FIG. 18. […] As before, dihydroethidium (DHE) was applied for the last hour (DHE detects superoxide and hydrogen peroxide). After fixation, ICC for PV and GAD67 was carried out as described in methods and quantitative confocal microscopy was utilized for fluorescence analysis.\nDHE (1 μg/ml) was added during the last hour of treatment. Images show the increase in Nox2 immunoreactivity and oxidized DHE upon treatment with IL-6. Bar-graphs show the results of quantification of oxidized DHE and Nox2 fluorescence expressed as % of control. […] Data are means±SEM. Baseline intensities: DHE=21±4.7; Nox2=18.7±2.6.\nFluorescence confocal images of representative fields depicting the expression of parvalbumin (PV) and GAD67 in PV-interneurons. Bar-graph represents the quantification of fluorescence expressed as % of control. […] Data are means±SEM. Baseline intensities: PV=135±32; GAD67=114±26.\nIL-6 potentiates ketamine effects on PV-interneurons. […] After fixation, ICC for GAD67 and parvalbumin was carried out as described by Kinney (2006) J. Neurosci. […] N=3 cultures per condition."}, "[2]": {"molecular_target": "T1, NADPH oxidase (Mus musculus, UniProt Q61093)", "T1 sequence (Q61093 1-570)": "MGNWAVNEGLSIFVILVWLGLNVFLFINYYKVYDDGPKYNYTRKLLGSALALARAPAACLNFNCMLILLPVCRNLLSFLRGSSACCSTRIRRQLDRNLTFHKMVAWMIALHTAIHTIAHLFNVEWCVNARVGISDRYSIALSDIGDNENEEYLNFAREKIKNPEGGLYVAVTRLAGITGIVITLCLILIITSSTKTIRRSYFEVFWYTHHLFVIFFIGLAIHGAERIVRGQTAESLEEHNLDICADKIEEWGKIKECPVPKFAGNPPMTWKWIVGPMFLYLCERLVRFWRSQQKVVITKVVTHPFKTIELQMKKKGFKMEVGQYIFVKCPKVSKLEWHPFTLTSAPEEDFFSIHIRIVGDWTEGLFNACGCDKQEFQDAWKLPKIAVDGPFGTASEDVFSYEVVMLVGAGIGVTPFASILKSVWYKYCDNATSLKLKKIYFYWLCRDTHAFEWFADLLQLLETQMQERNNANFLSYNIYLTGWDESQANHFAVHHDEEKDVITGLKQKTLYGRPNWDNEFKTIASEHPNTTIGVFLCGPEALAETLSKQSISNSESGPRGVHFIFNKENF", "T1 sequence (Q61462 1-192 partner)": "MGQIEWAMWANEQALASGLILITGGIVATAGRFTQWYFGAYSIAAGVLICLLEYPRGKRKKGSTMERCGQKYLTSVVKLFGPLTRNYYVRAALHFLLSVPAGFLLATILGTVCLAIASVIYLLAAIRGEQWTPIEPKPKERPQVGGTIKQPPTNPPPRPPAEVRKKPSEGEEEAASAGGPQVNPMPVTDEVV", "experiment": "EPR superoxide production by forebrain synaptosomes exposed to IL-6", "type": "biochemical", "conditions": "apocynin 0.4 mM applied 5 min before IL-6"}}}
{"compound": "COc1cc(C(C)=O)ccc1O", "note": "[apocynin, 4-hydroxy-3-methoxyacetophenone]", "values": [{"measurement": "effect on IL-6 effects (DHE oxidation, GAD67 and parvalbumin)", "setting": "[1]; apocynin 0.5 mM with IL-6 10 ng/ml, 24 h", "result": "prevented"}, {"measurement": "effect on IL-6-induced superoxide production", "setting": "[1]; apocynin added along with IL-6", "result": "eliminated"}, {"measurement": "effect on Nox2 induction by IL-6", "setting": "[1]; apocynin added along with IL-6", "result": "not affected"}, {"measurement": "effect on IL-6-induced increase in superoxide (EPR)", "setting": "[2]", "result": "completely blocked"}]}
